In this experiment the target is Insulin-regulated aminopeptidase (Homo sapiens). The experiment is described as follows: Inhibition of recombinant human IRAP using L-AMC as substrate preincubated for 30 mins followed by substrate addition and measured after 1 hr by fluorescence based assay.
What is called IC50 is the concentration at which inhibition is half-maximal. For the compound `O=C1N=C(S)SC1=Cc1ccc(C(=O)O)cc1`, the IC50 was determined as 40.9 µM.
In the case of `O=C(NO)c1ccc(S(=O)(=O)N2CCCCC2)s1`, the IC50 worked out at 60.3 µM.
Consider `O=C(Cc1ccc(S(=O)(=O)N2CCCCC2)s1)NO`, for which the IC50 is 16.3 µM.
With `O=C(O)c1cccc(S(=O)(=O)N2CCCC2)c1` the figure was 88.1 µM; with `O=C(O)c1cccc(S(=O)(=O)N2CCCCC2)c1`, 14.4 µM; with `O=C(O)c1cccc(S(=O)(=O)N2CCC(F)CC2)c1`, 15.1 µM.
As for `CN1C(=O)SC(Cc2ccc(C(=O)O)cc2)C1=O` (configuration not stated), the figure is 13.3 µM.

The values above are taken from BindingDB's records for PubMed 39369482 (Univ. Lille).
